Data from publication PMC9089800 (RSC Advances, 2018).

Test system: MCF7
Assay: MTT growth inhibition / cytotoxicity assay, MCF7
Assay type: cell-based, human
Conditions: Homo sapiens, MCF7, 48 h, read-out: IC50 in μM MCF7, MTT, 48 h, 0–100 μM

Row | SMILES | IC50 [µM]
1 | C=C1[C@@H]2[C@H]3OC(=O)[C@@H](CN[C@@H](C)c4ccccc4)[C@@H]3CCC(=C)[C@@H]2C[C@@H]1O [Compound 4, (3R,3aS,6aR,8S,9aR,9bS)-8-Hydroxy-6,9-dimethylene-3-((((S)-1-phenylethyl)amino)methyl)decahydroazuleno[4,5-b]furan-2(3H)-one] | > 100
2 | C=C1[C@@H]2[C@H]3OC(=O)[C@@H](CN[C@H](C)c4ccccc4)[C@@H]3CCC(=C)[C@@H]2C[C@@H]1O [Compound 6, (3R,3aS,6aR,8S,9aR,9bS)-8-Hydroxy-6,9-dimethylene-3-((((R)-1-phenylethyl)amino)methyl)decahydroazuleno[4,5-b]furan-2(3H)-one] | > 100
3 | C=C1[C@@H]2[C@H]3OC(=O)[C@@H](CN[C@@H](C)c4cccc5ccccc45)[C@@H]3CCC(=C)[C@@H]2C[C@@H]1OC(C)=O [Compound 7, (3R,3aS,6aR,8S,9aR,9bS)-6,9-Dimethylene-3-((((S)-1-(naphthalen-1-yl)ethyl)amino)methyl)-2-oxododecahydroazuleno[4,5-b]furan-8-yl acetate] | > 100
4 | C=C1[C@@H]2[C@H]3OC(=O)[C@@H](CN[C@@H](C)c4cccc5ccccc45)[C@@H]3CCC(=C)[C@@H]2C[C@@H]1O [Compound 8, (3R,3aS,6aR,8S,9aR,9bS)-8-Hydroxy-6,9-dimethylene-3-((((S)-1-(naphthalene-1-yl)ethyl)amino)methyl)decahydroazuleno[4,5-b] furan-2(3H)-one] | 75.8 ± 3
5 | C=C1[C@@H]2[C@H]3OC(=O)[C@@H](CN[C@H](C)C4CCCCC4)[C@@H]3CCC(=C)[C@@H]2C[C@@H]1O [Compound 11, (3R,3aS,6aR,8S,9aR,9bS)-3-((((R)-1-Cyclohexylethyl)amino)methyl)-8-hydroxy-6,9-dimethylenedecahydroazuleno[4,5-b]furan-2(3H)-one] | > 100
6 | C=C1[C@@H]2[C@H]3OC(=O)[C@@H](CN[C@@H](C)C4CCCCC4)[C@@H]3CCC(=C)[C@@H]2C[C@@H]1O [Compound 12, (3R,3aS,6aR,8S,9aR,9bS)-3-((((S)-1-Cyclohexylethyl)amino)methyl)-8-hydroxy-6,9-dimethylenedecahydroazuleno[4,5-b]furan-2(3H)-one] | > 100
7 | C=C1[C@@H]2[C@H]3OC(=O)[C@@H](CN4CCOCC4)[C@@H]3CCC(=C)[C@@H]2C[C@@H]1OC(C)=O [Compound 17, (3R,3aS,6aR,8S,9aR,9bS)-6,9-Dimethylene-3-(morpholinomethyl)-2-oxododecahydroazuleno[4,5-b]furan-8-yl acetate] | > 100
8 | C=C1[C@@H]2[C@H]3OC(=O)[C@@H](CN4CCOCC4)[C@@H]3CCC(=C)[C@@H]2C[C@@H]1O [Compound 18, (3R,3aS,6aR,8S,9aR,9bS)-8-Hydroxy-6,9-dimethylene-3-(morpholinomethyl)decahydroazuleno[4,5-b]furan-2(3H)-one] | > 100
9 | C=C1[C@@H]2[C@H]3OC(=O)[C@@H](CN4CCCC4)[C@@H]3CCC(=C)[C@@H]2C[C@@H]1O [Compound 19, (3R,3aS,6aR,8S,9aR,9bS)-8-Hydroxy-6,9-dimethylene-3-(pyrrolidin-1-ylmethyl)decahydroazuleno[4,5-b]furan-2(3H)-one] | > 100
10 | C=C1[C@@H]2[C@H]3OC(=O)[C@@H](CN4CCCCC4)[C@@H]3CCC(=C)[C@@H]2C[C@@H]1O [Compound 20, (3R,3aS,6aR,8S,9aR,9bS)-8-Hydroxy-6,9-dimethylene-3-(piperidin-1-ylmethyl)decahydroazuleno[4,5-b]furan-2(3H)-one] | > 100
11 | C=C1[C@@H]2[C@H]3OC(=O)[C@@H](COC)[C@@H]3CCC(=C)[C@@H]2C[C@@H]1O [Compound 22, (3R,3aS,6aR,8S,9aR,9bS)-8-Hydroxy-3-(methoxymethyl)-6,9-dimethylenedecahydroazuleno[4,5-b]furan-2(3H)-one] | > 100
12 | C=C1[C@@H]2[C@H]3OC(=O)/C(=C/c4ccc(C)cc4)[C@@H]3CCC(=C)[C@@H]2C[C@@H]1OC(C)=O [Compound 23, (3aS,6aR,8S,9aR,9bS)-3-((E)-4-Methylbenzylidene)-6,9-dimethylene-2-oxododecahydroazuleno[4,5-b]furan-8-yl acetate] | > 100
13 | C=C1[C@@H]2[C@H]3OC(=O)/C(=C/c4cccc(C(F)(F)F)c4)[C@@H]3CCC(=C)[C@@H]2C[C@@H]1OC(C)=O [Compound 24, (3aS,6aR,8S,9aR,9bS)-6,9-Dimethylene-2-oxo-3-((E)-3-(trifluoro-methyl)benzylidene)dodecahydroazuleno[4,5-b]furan-8-yl acetate] | > 100
14 | C=C1[C@@H]2[C@H]3OC(=O)/C(=C/c4ccc(Cl)cc4)[C@@H]3CCC(=C)[C@@H]2C[C@@H]1OC(C)=O [Compound 25, (3aS,6aR,8S,9aR,9bS)-3-((E)-4-Chlorobenzylidene)-6,9-dimethylene-2-oxododecahydroazuleno[4,5-b]furan-8-yl acetate] | > 100
15 | C=C1[C@@H]2[C@H]3OC(=O)/C(=C/c4c(OC)cccc4[N+](=O)[O-])[C@@H]3CCC(=C)[C@@H]2C[C@@H]1OC(C)=O [Compound 26, (3aS,6aR,8S,9aR,9bS)-3-((E)-2-Methoxy-6-nitrobenzylidene)-6,9-dimethylene-2-oxododecahydroazuleno[4,5-b]furan-8-yl acetate] | > 100
16 | C=C1[C@@H]2[C@H]3OC(=O)/C(=C/c4ccc(C)c([N+](=O)[O-])c4)[C@@H]3CCC(=C)[C@@H]2C[C@@H]1OC(C)=O [Compound 27, (3aS,6aR,8S,9aR,9bS)-3-((E)-4-Methyl-3-nitrobenzylidene)-6,9-dimethylene-2-oxododecahydroazuleno[4,5-b]furan-8-yl acetate] | > 100
17 | C=C1[C@@H]2[C@H]3OC(=O)/C(=C/c4ccc(NC(C)=O)c(C(F)(F)F)c4)[C@@H]3CCC(=C)[C@@H]2C[C@@H]1OC(C)=O [Compound 28, (3aS,6aR,8S,9aR,9bS)-3-((E)-4-Acetamido-3-(trifluoromethyl)benzylidene)-6,9-dimethylene-2-oxododecahydroazuleno[4,5-b] furan-8-yl acetate] | > 100
18 | C=C1[C@@H]2[C@H]3OC(=O)/C(=C/c4ccccc4C)[C@@H]3CCC(=C)[C@@H]2C[C@@H]1OC(C)=O [Compound 29, (3aS,6aR,8S,9aR,9bS)-3-((E)-2-Methylbenzylidene)-6,9-dimethylene-2-oxododecahydroazuleno[4,5-b]furan-8-yl acetate] | 74
19 | C=C1[C@@H]2[C@H]3OC(=O)/C(=C/c4ccc(C(=O)OC)cc4)[C@@H]3CCC(=C)[C@@H]2C[C@@H]1OC(C)=O [Compound 30, Methyl-4-((E)-((3aS,6aR,8S,9aR,9bS)-8-acetoxy-6,9-dimethylene-2-oxodecahydroazuleno[4,5-b]furan-3(2H)-ylidene)methyl)benzoate] | > 100
20 | C=C1[C@@H]2[C@H]3OC(=O)/C(=C/c4ccccc4[N+](=O)[O-])[C@@H]3CCC(=C)[C@@H]2C[C@@H]1OC(C)=O [Compound 32, (3aS,6aR,8S,9aR,9bS)-6,9-Dimethylene-3-((E)-2-nitrobenzylidene)-2-oxododecahydroazuleno[4,5-b]furan-8-yl acetate] | 36.5
21 | C=C1[C@@H]2[C@H]3OC(=O)/C(=C/c4ccc(Cl)cc4[N+](=O)[O-])[C@@H]3CCC(=C)[C@@H]2C[C@@H]1OC(C)=O [Compound 33, (3aS,6aR,8S,9aR,9bS)-3-((E)-4-Chloro-2-nitrobenzylidene)-6,9-dimethylene-2-oxododecahydroazuleno[4,5-b]furan-8-yl acetate] | > 100
